Experiments:
hα7-wt nAChR = target: T1, hα7-wt nAChR (Homo sapiens, UniProt P36544); assay: Ca2+ flux imaging (FDSS) (Protocol B), potentiation of the choline response; type: cell-based; details: Ca2+ assay as described in D.1; for EC50: "<5" = activity did not reach a top plateau at maximal concentration; for Emax: read-out: % Efficacy
T1 construct: expressed in transfected cells
In short: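 Cells expressing hα7-wt nAChR, loaded with fluo-4AM (2 μM final) in HBSS with 10 mM HEPES, 5 mM CaCl2, 0.1% BSA and probenecid; compound (0.01–30 μM) added up to 10 min before 100 μM choline. Peak fluorescence potentiation relative to choline alone (100%); EC50 from sigmoidal curve.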

[1] = target: T2, hα7-wt nAChR-expressing GH4C1 cells (Homo sapiens, UniProt P36544); assay: Patch-clamp current recording (whole-cell voltage clamp), potentiation of the choline current and PAM type; type: cell-based; design: key: Type 0 compounds minimally enhance the effect size of the current elicited by 1 mM choline.; Type 1 compounds enhance the effect size of the current elicited by 1 mM choline but minimally alter the kinetics of the receptor.; Type 2 compounds enhance the effect size of the current elicited by 1 mM choline while reducing the rate and/or the extent of desensitization.; Type 3 compounds enhance the effect size of the current elicited by 1 mM choline. When tested at higher concentrations up to 10 μM they completely inhibit desensitization, in particular a 1 mM choline application of 250 milliseconds.; Type 4 compounds allow for an initial desensitization of the receptor followed by a re-opening of the receptor during agonist application; details: 1 mM choline
T2 construct: expressed in transfected cells
Description: The compounds of the present invention are classified as type 1-4, based on qualitative kinetic properties, as determined by whole-cell voltage-clamp recordings. This classification is based on the effect of an α7 PAM compound, as described hereinbefore, on the signal elicited by an agonist application. In particular, said agonist is choline at a concentration of 1 mM. In a preferred experimental setting, said α7 PAM compound and choline are simultaneously applied to the cell, as described hereinafter. Desensitization is defined as the closure of the receptor upon activation during the application of the agonist in whole-cell voltage-clamp electrophysiology measurements seen as the reduction of the […] current after initial activation by the agonist.
The definition of the PAM types 1-4 is described hereinafter: • Type 0 compounds minimally enhance the effect size of the current elicited by 1 mM choline. • Type 1 compounds enhance the effect size of the current elicited by 1 mM choline but minimally alter the kinetics of the receptor. In particular, the rate and the extent of desensitization, elicited by the agonist, is not affected. The compound-modulated response to 1 mM choline, therefore, is a close to linear scaling of the 1 mM choline response in absence of the α7 PAM compound. • Type 2 compounds enhance the effect size of the current elicited by 1 mM choline while reducing the rate and/or the extent of desensitization. • Type 3 compounds enhance the effect size of the current elicited by 1 mM choline. […] At low-potency concentrations of the α7 PAM compound, the agonist-induced activation, which is followed by desensitization, can still be separated from the compound-induced re-opening as an initial inward current-maximum. At higher potency concentrations of the α7 PAM compound, the re-opening occurs faster than the closure due to desensitization so that the initial current-maximum disappears.
A compound was considered to have interesting PAM-like activity when the potentiation of the peak current was at least 200% compared to the control choline response (=100%). Such compounds are classified as belonging to a particular PAM type in the Experimental Part. Compounds not meeting the condition are not classified as belonging to a particular PAM-type.
The compounds also have a potentiating effect on the response to choline when measured by whole-cell patch clamp electrophysiology in GH4C1 cells stably over-expressing the human wild-type α7 receptor.
Patch-Clamp Current Recording
Patch-clamp recording from mammalian cells has provided a powerful means of assessing the function of membrane-bound proteins thought to be subunits of ligand-gated ion channels. Activation of such proteins by endogenous or exogenous ligands cause opening of a pore associated with the receptor through which ions flow down their electrochemical gradient. In the case of the hα7-wt nAChR-expressing GH4C1 recombinant cell line the preferential permeability to calcium of this receptor means that calcium flows into the cell upon activation by ACh, choline and other nicotinic ligands giving rise to a calcium current. Since this receptor rapidly desensitizes in the presence of agonist it is important an application system is used which is capable of very rapid switching of solutions (<100 ms) to prevent partial or full desensitisation of receptor responses coincident with the time of agonist application. Consequently, a second convenient technique to assess the enhancement of nicotinic efficacy is patch-clamp recording from hα7-wt nAChR-expressing GH4C1 cells coupled with a rapid-application system.
• The external recording solution consisted of 152 mM NaCl, 5 mM KCl, 1 mM MgCl2, 1 mM Calcium, 10 mM HEPES; pH 7.3. […]

T1 sequence (P36544 23-502): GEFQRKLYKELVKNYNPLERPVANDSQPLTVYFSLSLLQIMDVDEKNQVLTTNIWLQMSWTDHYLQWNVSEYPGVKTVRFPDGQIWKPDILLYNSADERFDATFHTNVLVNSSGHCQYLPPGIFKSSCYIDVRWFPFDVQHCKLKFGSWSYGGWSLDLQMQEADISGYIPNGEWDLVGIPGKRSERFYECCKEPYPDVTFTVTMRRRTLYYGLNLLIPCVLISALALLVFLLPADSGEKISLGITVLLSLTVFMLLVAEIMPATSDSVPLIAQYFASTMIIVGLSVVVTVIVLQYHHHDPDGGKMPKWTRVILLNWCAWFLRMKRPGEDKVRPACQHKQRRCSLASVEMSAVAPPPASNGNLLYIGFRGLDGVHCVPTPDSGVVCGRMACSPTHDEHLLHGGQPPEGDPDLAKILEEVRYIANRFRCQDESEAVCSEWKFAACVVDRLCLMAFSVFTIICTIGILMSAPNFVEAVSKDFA
T2 sequence (P36544 23-502): as above

SMILES | EC50 (hα7-wt nAChR) [µM] | Emax (hα7-wt nAChR) [%] | PAM type [1]
COc1cc(Cl)cc(Nc2cc(-c3ccnc(C)c3)n(CC(=O)NC3CC3)n2)c1 [compound 110] | 1.78 | – | 2
Cc1cc(-c2cc(Nc3cccc(Cl)c3)nn2CCC(=O)N(C)C)ccn1 [compound 146] | 0.447 | – | 2
Cc1cc(-c2cc(Nc3cccc(Cl)c3)nn2CC(=O)NCC2CC2)cc(C)n1 [compound 100] | 0.339 | – | 2
Cc1cc(-c2cc(Nc3ccc(F)c(F)c3)nn2CC(=O)NCC2CC2)cc(C)n1 [compound 57] | 0.209 | – | 2
CC[C@H](O)Cn1nc(Nc2ccc(F)c(F)c2)cc1-c1ccnc(COC)c1 [compound 6, (alphaS)-3-[(3,4-difluorophenyl)amino]-alpha-ethyl-5-[2-(methoxymethyl)-4-pyridinyl]-1H-pyrazole-1-ethanol] | 1.15 | – | 2
CCNC(=O)Cn1nc(Nc2cccc(Cl)c2F)cc1-c1ccnc(C)c1 [compound 137] | 0.631 | 946 | 2
Cc1ccnc(-c2cc(Nc3ccc(F)c(F)c3)nn2CCC(=O)N(C)C)c1 [compound 22] | 2.45 | – | 2
Cc1cc(-c2cc(Nc3ccc4c(c3)OC(F)(F)O4)nn2CC(=O)NC2CC2)cc(C)n1 [compound 145] | 0.479 | 736 | 2
CNC(=O)Cn1nc(Nc2cccc(Cl)c2)cc1-c1cc(C)nc(C)c1 [compound 54] | 0.977 | – | 2
CNC(=O)Cn1nc(Nc2cccc(OC(F)(F)F)c2)cc1-c1ccnc(C)c1 [compound 35] | 2.45 | – | 2
CCNc1cc(-c2cc(Nc3cc(F)cc(F)c3)nn2C[C@@H](O)CC)ccn1 [compound 8, (alphaS)-3-[(3,5-difluorophenyl)amino]-alpha-ethyl-5-[2-(ethylamino)-4-pyridinyl]-1H-pyrazole-1-ethanol] | 0.955 | 1000 | 1
CN(C)C(=O)CCn1nc(Nc2ccc(F)c(F)c2)cc1-c1ccncc1 [compound 21] | 1.23 | – | 3
Cc1ccnc(-c2cc(Nc3ccc(F)c(C(F)(F)F)c3)nn2CCC(=O)N(C)C)c1 [compound 23] | 0.631 | – | 2
CC[C@H](O)Cn1nc(Nc2cccc(Cl)c2)cc1-c1ccnc(COC)c1 [compound 136] | 0.646 | – | 1
CN(C)C(=O)CCn1nc(Nc2ccc(F)c(F)c2)cc1-c1cccnc1 [compound 19] | 4.27 | – | 2
Cc1cc(-c2cc(Nc3ccc4c(c3)OC(F)(F)O4)nn2CCC(=O)N(C)C)ccn1 [compound 94] | 0.24 | – | 2

More lines, in order of falling EC50 (hα7-wt nAChR), values ahead:

EC50 (hα7-wt nAChR) [µM] | Emax (hα7-wt nAChR) [%] | SMILES | PAM type [1]
1.91 | – | CCNC(=O)Cn1nc(Nc2cccc(C(F)(F)F)c2)cc1-c1ccnc(C)c1 [compound 36] | 2
1.45 | 700 | Cc1cc(-c2cc(Nc3ccc(F)c(C(F)(F)F)c3)nn2C[C@H](C)O)ccn1 [compound 43] | 1
1.38 | 700 | CC[C@H](O)Cn1nc(Nc2cc(F)cc(F)c2)cc1-c1ccnc(COC)c1 [compound 71] | 1
1 | – | Cc1cc(-c2cc(Nc3ccc(F)c(F)c3)nn2CCC(=O)N(C)C)ccn1 [compound 40] | 2
0.912 | – | COc1cc(Cl)cc(Nc2cc(-c3ccnc(C)c3)n(CCC(=O)N(C)C)n2)c1 [compound 126] | 2
0.525 | 901 | CCNC(=O)Cn1nc(Nc2cccc(Cl)c2F)cc1-c1cc(C)nc(C)c1 [compound 154] | 2
0.309 | 482 | Cc1cc(-c2cc(Nc3ccc(F)c(F)c3F)nn2CC(=O)NCC2CC2)ccn1 [compound 164] | 2
0.0776 | – | COc1ccc(-c2cc(Nc3ccc(F)c(F)c3)nn2CCC(=O)N(C)C)cc1 [compound 102] | 4
